Test results as given in patent US9452997B2, “Piperidine and piperazine derivatives as autotaxin inhibitors” (Merck Patent GmbH, priority 2009, dated 2016).

Each compound was assayed against T1, Recombinant autotaxin (Homo sapiens, UniProt Q13822) (assay: Autotaxin assay (Amplex Red, LPC substrate)). Details: recombinant autotaxin, LPC substrate, Amplex Red detection; values given as upper bounds.
T1 construct: made in house; host or cells: Hi5 insect cells (baculovirus)
Assay type: biochemical
Method: Autotaxin activity is measured indirectly by means of Amplex Red Reagent. In this course, Amplex Red is measured as fluorogenic indicator for generated H2O2. Autotaxin converts substrate lysophosphatidylcholine (LPC) to phosphocholine and lysophosphatidylic acid (LPA). After the conversion phosphocholine is reacted with alkaline phosphatase to obtain inorganic phosphate and choline. During the next step choline is oxidized with choline oxidase to yield betaine, whereby H2O2 is generated. H2O2 reacts with Amplex Red Reagent in the presence of peroxidase (Horseradish peroxidase) in an 1:1 stochiometry and yields highly fluorescent resorufin. The generated fluorescence is measured in a reaction-dependent kinetic mode in order to enable subtraction of fluorescence signals of possible other fluorescent compounds that are not part of the reaction from total measured fluorescence.
1.5 μl of a standard solution or of the compounds of the invention are dissolved in 20 mM Hepes pH 7.2 with maximally 7.7% DMSO in individual concentrations. The resulting solution is pre-incubated together with 10 μl (16 ng) of highly purified recombinant autotaxin in a black 384-hole microtiter plate for 30 min at 22° C.
Thereafter, the reaction is started through the addition of 5 μL-a-lysophosphatidyl-choline (LPC), whereby the final concentration of LPC is 75 μM. The mixture is incubated for 90 min. at 37° C. After the incubation Amplex Red Reagent, peroxidase (Horseradish peroxidase) and choline oxidase are added. The fluorescence is immediately measured at a wavelength of 612 nm with an excitation wavelength of 485 nm in a “Tecan Ultra multimode” fluorescence reader. The activity of autotaxin is indirectly calculated via the amount of detected generated H2O2.
For IC50 analysis, ten serial 1:3 dilutions starting at 30 μM for each compound were run in duplicates.
IC50 values were calculated on normalized data. For normalization, control wells were added to each assay plate and the signal of uninhibited control wells was set to 100%, whereas the signal inhibited by 500 μM C14 LPA, (Avanti Polar Lipids, Cat#857120P) was set to 0%. Curves were fitted and IC50 values calculated by the following model using proprietory analysis software: Y=Bottom+(100−Bottom)/(1+10^((Log IC50−X)*HillSlope)) Where X is the logarithm of concentration. Y is the response; Y starts at Bottom and goes to Top with a sigmoid shape. Material
Microtiter plate: PS-Microplate, 384-hole, small volume, black Corning, Cat#3677
Protein: Recombinant autotaxin (baculoviral Hi5 expression)
Substrate: L-a-lysophosphatidyl choline (chicken egg); Avanti Polar Lipids #830071P
Standard: C14 LPA, Avanti Polar Lipids, Cat#857120P
Detection Reagent: Amplex Red Reagent; Invitrogen #A12222; dissolved in 1.923 ml of DMSO peroxidase Type VI-A (horseradish), Sigma #P6782; dissolved in 7.45 ml of test buffer, Choline Oxidase; Sigma #C5896; dissolved in 2.47 ml test buffer
Detection Reagent Mix: 1:100 dilution of Amplex Red Regent in test buffer
Test buffer: 200 mM Tris-HCl, Merck, Cat #1.08219, pH 7.9; 0.1% BSA, lipid free, Roche Cat#775835

IC50 [nM] | Structure (SMILES)
< 30000 | O=C(NCCc1cccnc1)C1CC(=O)N(C2CCN(C(=O)OCc3cc(Cl)cc(Cl)c3)CC2)C1 (stereo not shown) [Compound 30, 4-[2-Oxo-4-(2-pyridin-3-yl-ethylcarbamoyl)-pyrrolidin-1-yl]-piperidine-1-carboxylic acid 3,5-dichloro-benzyl ester]
< 30000 | O=C(Nc1cc(Cl)cc(Cl)c1)N1CCN(C2CCN(C(=O)c3ccc4[nH]nnc4c3)CC2)CC1 [Compound 31, 4-[1-(1H-Benzotriazole-5-carbonyl)-piperidin-4-yl]-piperazine-1-carboxylic acid (3,5-dichloro-phenyl)-amide]
< 1000 | O=C(CCc1ccc(C(F)(F)F)cc1)N1CCN(C2CCN(C(=O)c3ccc4[nH]nnc4c3)CC2)CC1 [Compound 32, 1-{4-[1-(1H-Benzotriazole-5-carbonyl)-piperidin-4-yl]-piperazin-1-yl}-3-(4-trifluoromethyl-phenyl)-propan-1-one]
< 1000 | O=C(CCc1ccc(C(F)(F)F)cc1)N1CCN(C2CCN(C(=O)c3ccc4[nH]c(=O)oc4c3)CC2)CC1 [Compound 33, 6-(4-{4-[3-(4-Trifluoromethyl-phenyl)-propionyl]-piperazin-1-yl}-piperidine-1-carbonyl)-3H-benzooxazol-2-one]
< 1000 | O=C(OCc1ccc(C(F)(F)F)cc1)N1CCN(C2CCN(C(=O)c3ccc4[nH]nnc4c3)CC2)CC1 [Compound 34, 4-[1-(1H-Benzotriazole-5-carbonyl)-piperidin-4-yl]-piperazine-1-carboxylic acid 4-trifluoromethyl-benzyl ester]
< 1000 | O=C(OCc1cc(C(F)(F)F)cc(C(F)(F)F)c1)N1CCN(C2CCN(C(=O)c3ccc4[nH]nnc4c3)CC2)CC1 [Compound 35, 4-[1-(1H-Benzotriazole-5-carbonyl)-piperidin-4-yl]-piperazine-1-carboxylic acid 3,5-bis-trifluoromethyl-benzyl ester]
< 1000 | O=C(OCc1ccc(Cl)cc1F)N1CCN(C2CCN(C(=O)c3ccc4[nH]nnc4c3)CC2)CC1 [Compound 36, 4-[1-(1H-Benzotriazole-5-carbonyl)-piperidin-4-yl]-piperazine-1-carboxylic acid 4-chloro-2-fluoro-benzyl ester]
< 1000 | O=C(OCc1ccc(SC(F)(F)F)cc1)N1CCN(C2CCN(C(=O)c3ccc4[nH]nnc4c3)CC2)CC1 [Compound 37, 4-[1-(1H-Benzotriazole-5-carbonyl)-piperidin-4-yl]-piperazine-1-carboxylic acid 4-trifluoromethylsulfanyl-benzyl ester]
< 1000 | COc1ccc(Cl)cc1COC(=O)N1CCN(C2CCN(C(=O)c3ccc4[nH]nnc4c3)CC2)CC1 [Compound 38, 4-[1-(1H-Benzotriazole-5-carbonyl)-piperidin-4-yl]-piperazine-1-carboxylic acid 5-chloro-2-methoxy-benzyl ester]
< 10000 | O=C(OCc1ccccc1Cl)N1CCN(C2CCN(C(=O)c3ccc4[nH]nnc4c3)CC2)CC1 [Compound 39, 4-[1-(1H-Benzotriazole-5-carbonyl)-piperidin-4-yl]-piperazine-1-carboxylic acid 2-chloro-benzyl ester]
< 10000 | Cc1ccc(COC(=O)N2CCN(C3CCN(C(=O)c4ccc5[nH]nnc5c4)CC3)CC2)cc1 [Compound 40, 4-[1-(1H-Benzotriazole-5-carbonyl)-piperidin-4-yl]-piperazine-1-carboxylic acid 4-methyl-benzyl ester]
< 1000 | O=C(OCc1cccc(Cl)c1)N1CCN(C2CCN(C(=O)c3ccc4[nH]nnc4c3)CC2)CC1 [Compound 41, 4-[1-(1H-Benzotriazole-5-carbonyl)-piperidin-4-yl]-piperazine-1-carboxylic acid 3-chloro-benzyl ester]
< 1000 | O=C(OCc1ccc(Cl)cc1)N1CCN(C2CCN(C(=O)c3ccc4[nH]nnc4c3)CC2)CC1 [Compound 42, 4-[1-(1H-Benzotriazole-5-carbonyl)-piperidin-4-yl]-piperazine-1-carboxylic acid 4-chloro-benzyl ester]
< 1000 | CC(C)c1ccc(COC(=O)N2CCN(C3CCN(C(=O)c4ccc5[nH]nnc5c4)CC3)CC2)cc1 [Compound 43, 4-[1-(1H-Benzotriazole-5-carbonyl)-piperidin-4-yl]-piperazine-1-carboxylic acid 4-isopropyl-benzyl ester]
< 1000 | O=C(OCc1ccc(Cl)c(Cl)c1)N1CCN(C2CCN(C(=O)c3ccc4[nH]nnc4c3)CC2)CC1 [Compound 45, 4-[1-(1H-Benzotriazole-5-carbonyl)-piperidin-4-yl]-piperazine-1-carboxylic acid 3,4-dichloro-benzyl ester]
< 1000 | O=C(OCc1ccc(Cl)cc1Cl)N1CCN(C2CCN(C(=O)c3ccc4[nH]nnc4c3)CC2)CC1 [Compound 46, 4-[1-(1H-Benzotriazole-5-carbonyl)-piperidin-4-yl]-piperazine-1-carboxylic acid 2,4-dichloro-benzyl ester]
< 1000 | O=C(OCc1ccc(OC(F)(F)F)cc1)N1CCN(C2CCN(C(=O)c3ccc4[nH]nnc4c3)CC2)CC1 [Compound 47, 4-[1-(1H-Benzotriazole-5-carbonyl)-piperidin-4-yl]-piperazine-1-carboxylic acid 4-trifluoromethoxy-benzyl ester]
< 10000 | Cc1nc(-c2ccc(C(F)(F)F)cc2)sc1C(=O)N1CCN(C2CCN(C(=O)c3ccc4[nH]nnc4c3)CC2)CC1 [Compound 48, (1H-Benzotriazol-5-yl)-(4-{4-[4-methyl-2-(4-trifluoromethyl-phenyl)-thiazole-5-carbonyl]-piperazin-1-yl}-piperidin-1-yl)-methanone]
< 1000 | O=C(CCc1ccc(C(F)(F)F)cc1)N1CCC(N2CCN(C(=O)c3ccc4[nH]c(=O)oc4c3)CC2)CC1 [Compound 49, 6-(4-{1-[3-(4-Trifluoromethyl-phenyl)-propionyl]-piperidin-4-yl}-piperazine-1-carbonyl)-3H-benzooxazol-2-one]
< 10000 | O=C(CCc1ccc(C(F)(F)F)cc1)N1CCC(N2CCN(C(=O)c3ccc4[nH]nnc4c3)CC2)CC1 [Compound 50, 1-{4-[4-(1H-Benzotriazole-5-carbonyl)-piperazin-1-yl]-piperidin-1-yl}-3-(4-trifluoromethyl-phenyl)-propan-1-one]
< 1000 | O=C(OCc1cc(Cl)cc(Cl)c1)N1CCC(NC2CCN(C(=O)c3ccc4[nH]nnc4c3)CC2)C1 (stereo not shown) [Compound 51, 3-[1-(1H-Benzotriazole-5-carbonyl)-piperidin-4-ylamino]-pyrrolidine-1-carboxylic acid 3,5-dichloro-benzyl ester]
< 10000 | O=C(c1ccc2[nH]nnc2c1)N1CCC(N2CCN(C(=O)c3nc4cc(C(F)(F)F)ccc4[nH]3)CC2)CC1 [Compound 52, (1H-Benzotriazol-5-yl)-{4-[4-(5-trifluoromethyl-1H-benzoimidazole-2-carbonyl)-piperazin-1-yl]-piperidin-1-yl}-methanone]
< 10000 | O=C(NCCc1c[nH]cn1)C1CC(=O)N(C2CCN(C(=O)OCc3cc(Cl)cc(Cl)c3)CC2)C1 (stereo not shown) [Compound 53, 4-{4-[2-(1H-Imidazol-4-yl)-ethylcarbamoyl]-2-oxo-pyrrolidin-1-yl}-piperidine-1-carboxylic acid 3,5-dichloro-benzyl ester]
< 10000 | O=C(Nc1ccc(-n2cncn2)cc1)C1CC(=O)N(C2CCN(C(=O)OCc3cc(Cl)cc(Cl)c3)CC2)C1 (stereo not shown) [Compound 54, 4-[2-Oxo-4-(4-[1,2,4]triazol-1-yl-phenylcarbamoyl)-pyrrolidin-1-yl]-piperidine-1-carboxylic acid 3,5-dichloro-benzyl ester]
< 10000 | O=C(Nc1ccc(-n2cccn2)cc1)C1CC(=O)N(C2CCN(C(=O)OCc3cc(Cl)cc(Cl)c3)CC2)C1 (stereo not shown) [Compound 55, 4-[2-Oxo-4-(4-pyrazol-1-yl-phenylcarbamoyl)-pyrrolidin-1-yl]-piperidine-1-carboxylic acid 3,5-dichloro-benzyl ester]
